One data set concerns the target T1, human VDR (Homo sapiens, UniProt P11473).
T1 sequence (P11473 1-427): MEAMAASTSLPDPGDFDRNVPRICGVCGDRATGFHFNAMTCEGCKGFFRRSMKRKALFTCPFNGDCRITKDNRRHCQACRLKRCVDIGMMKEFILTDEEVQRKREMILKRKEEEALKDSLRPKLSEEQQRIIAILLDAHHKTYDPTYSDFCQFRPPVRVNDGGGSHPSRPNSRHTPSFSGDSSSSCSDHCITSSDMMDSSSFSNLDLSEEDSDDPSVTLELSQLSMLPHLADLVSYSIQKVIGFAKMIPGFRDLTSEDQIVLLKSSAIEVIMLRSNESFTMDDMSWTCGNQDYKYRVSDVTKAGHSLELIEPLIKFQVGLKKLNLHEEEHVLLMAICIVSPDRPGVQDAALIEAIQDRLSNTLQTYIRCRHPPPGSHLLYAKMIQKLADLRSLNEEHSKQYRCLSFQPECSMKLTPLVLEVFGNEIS
T1 sequence (P19793 1-462 partner): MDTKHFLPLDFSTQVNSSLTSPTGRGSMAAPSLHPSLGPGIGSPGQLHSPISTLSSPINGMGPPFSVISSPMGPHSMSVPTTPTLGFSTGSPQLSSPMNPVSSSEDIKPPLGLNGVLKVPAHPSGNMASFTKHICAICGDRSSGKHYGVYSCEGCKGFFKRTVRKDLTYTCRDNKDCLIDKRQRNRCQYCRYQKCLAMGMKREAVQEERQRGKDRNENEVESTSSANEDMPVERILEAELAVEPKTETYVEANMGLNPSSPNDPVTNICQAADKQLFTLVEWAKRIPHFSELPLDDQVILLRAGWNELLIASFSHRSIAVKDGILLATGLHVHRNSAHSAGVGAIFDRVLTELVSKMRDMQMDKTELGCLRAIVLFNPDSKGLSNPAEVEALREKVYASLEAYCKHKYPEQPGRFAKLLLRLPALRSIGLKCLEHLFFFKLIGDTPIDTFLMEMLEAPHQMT
Description: Evaluation of VDR transcription activity in human osteoblasts (HOS cells), luciferase reporter. The following applies: Activity (EC50, VDR transcription activity), HOS cells transfected with human VDR, human RXRα and DR3 luciferase reporter; 21 hours. (In general: In a reporter assay the amount or activity of a reporter protein is the signal.)

Data set [1] has as its system rat oligodendrocyte progenitor cells. Description: Promotive activity of rat oligodendrocyte progenitor cell differentiation-1 (MBP gene expression, mRNA). The format is cell-based. The following applies: Rattus norvegicus, Oligodendrocyte progenitor cell, 96 h, read-out: promotive activity at T3 base (MBP gene expression; DMSO 0%, T3 100%), 4 days, MBP/β actin mRNA. As for the experimental part:
Regarding vitamin D derivatives, which was confirmed to act on the vitamin D receptor (VDR) in Example 352, the promotive activity of oligodendrocyte progenitor cell (OPC) differentiation was evaluated by MBP gene expression (mRNA).
A forebrain obtained from SD rat (Charles River Japan, 1 day old) was crushed with 70 μm Cell Strainer (Falcon #352350), and a cell suspension was prepared by collecting the cells in oligodendrocyte progenitor cell separation medium (20% FBS/2 mM Glutamax (Gibco #35050-061)/i mM sodium pyruvate (Gibco #11360-070)/1% penicillin-streptomycin (Invitrogen #15140-122)/DMEM (Gibco #11960-044)). The cell suspension was seeded in a poly-D-lysine coated T75 flask (Thermo Fisher Scientific #132704) and cultured for about 2 weeks. After culturing, the flask was shaken using a rotary shaker ([…] #WB-101SRC) for about 1 hour (37° C., 100 rpm), and the supernatant was discarded to remove microglia. Subsequently, oligodendrocyte progenitor cell separation medium was added to the flask, and the mixture was similarly shaken for about 22 hours (37° C., 200 rpm), and the supernatant was collected to prepare oligodendrocyte progenitor cells.
The oligodendrocyte progenitor cell prepared was suspended in a differentiation medium (2% B27 (Thermo Fisher Scientific, Inc. #17504-044)/1% penicillin-streptomycin (Invitrogen Corporation #15140-122)/10 ng/mL CNTF (PeproTech Inc. #AF-450-13)/DMEM (Gibco #11960-044)), and seeded on a 96-well plate coated with poly-L-ornithine (FUJIFILM Wako Pure Chemical Corporation #163-27421) under the condition of 0.65×10^4 cells/well, and on a 384-well plate under the condition of 2×10^3 cells/well using an automatic dispensing system (LABCYTE #Echo555). […] After culturing, the cells seeded on the 96-well plate were subjected to immunostaining against MBP using following methods: fixation (4% paraformaldehyde solution, 30 minutes, room temperature), PBS washing, membrane permeation treatment (0.1% Trion X-100 (SIGMA #X100-100ML)/PBS, 3 minutes, room temperature), blocking (3% BSA (SIGMA #A9647-10G)/PBS, 1 hour, room temperature), primary antibody reaction (MBP antibody (abcam plc #ab40390), 2.5 μg/mL, 4° C., 24 hours), PBS washing, secondary antibody reaction (Alexa488 anti-rabbit IgG (Thermo Fisher Scientific, Inc. #A-11034), 5 μg/mL, room temperature, 1 hour), PBS washing, and nuclear staining (Hoechst33342 (DOJINDO #NU043), 10 μg/mL, room temperature, 5 minutes). Subsequently, images of each well were acquired using a fluorescence microscope (KEYENCE CORPORATION #BZ-X800), the number of MBP-positive cells and Hoechst 33342-positive cells were measured using an image analysis application (KEYENCE CORPORATION #BZ-X800 Analyzer), and then the ratio (the number of MBP-positive cells/the number of Hoechst33342-positive cells) was calculated. The cells seeded on the 384-well plate were subjected to real-time PCR using Cells-to-CT 1-Step TaqMan Kit (Thermo Fisher Scientific, Inc. #A25602) and QuantStudio 12K Flex Real-Time PCR System (Thermo Fisher Scientific, Inc. #4472380). The experiment was performed in accordance with the protocol attached to the kit. MBP (Thermo Fisher Scientific, Inc. #Assay ID Rn00690616_ml) and β actin (Thermo Fisher Scientific, Inc. #Assay ID Rn00667869_ml) were used as primers, and the expression levels of each were measured and the ratio (MBP/β actin) was calculated.

Data set [2] is described as follows: Evaluation of brain penetration in mice (blood and brain concentration at brain Cmax). The format is in vivo, mouse. The settings on record: 1 mg/kg single oral dose, C57BL/6J mice; for Concentration in blood (mean ± SD) at brain Cmax / Concentration in brain (mean ± SD) at brain Cmax: n=3; for Kp: male, C57BL/6J, mouse, brain/plasma, po, 1 mg/kg, read-out: Concentration in brain/in blood ratio at brain Cmax. An outline of the steps: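 Male C57BL/6J mice (8 weeks, n=3) dosed orally once at 1 […] mg/kg; plasma and brain collected at 0.25, 0.5, 1, 2, 4 and 8 h. Compound extracted with acetonitrile from brain homogenate and plasma, quantified by LC/MS/MS.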

In data set [3] the test system is rat oligodendrocyte progenitor cells. Description: Promotive activity of rat oligodendrocyte progenitor cell differentiation-2 (immunostaining of MBP). The format is cell-based. The settings on record: vitamin D derivative 2 μM, T3 30 nM, 4 days. The gist of the method:
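Vitamin D derivatives scored as symbols for promoting differentiation, read out by MBP immunostaining. OPCs taken from supernatant after about 22 h shaking (37 °C, 200 rpm) in separation medium.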

The term EC50 denotes the concentration giving half of the maximal effect.

As to `C=C1/C(=C\C=C2/CCC[C@]3(C)[C@@H]([C@H](C)CN4CC[C@H](C(F)F)C4)CC[C@@H]23)C[C@@H](O)[C@H](C)[C@@H]1O` [Compound B021, (1R,2S,3 S,Z)-5-(2-((1R,3aS,7aR,E)-1-((S)-1-((S)-3-(difluoromethyl)pyrrolidin-1-yl)propan-2-yl)-7a-methyloctahydro-4H-inden-4-ylidene)ethylidene)-2-methyl-4-methylenecyclohexane-1,3-diol], the 50% effective concentration (EC50) on human VDR is 10 to 100 nM. Besides, the activation at 1 µM in data set [1] was not below 20%. Besides, in data set [2], the “Concentration in blood (mean ± SD) at brain Cmax” value worked out at 320 ± 53 nM, the “Concentration in brain (mean ± SD) at brain Cmax” value was 237 ± 33 pmol/g and the Kp turned out to be 0.74.
Regarding `C=C1/C(=C\C=C2/CCC[C@]3(C)[C@@H]([C@H](C)CN4CC[C@@H](C(F)F)C4)CC[C@@H]23)C[C@@H](O)C[C@@H]1O` [Compound B024, (1R,3 S,Z)-5-(2-((1R,3aS,7aR,E)-1-((S)-1-((R)-3-(difluoromethyl)pyrrolidin-1-yl)propan-2-yl)-7a-methyloctahydro-4H-inden-4-ylidene)ethylidene)-4-methylenecyclohexane-1,3-diol], the “Mean (number of MBP-positive cells/number of Hoechst33342-positive cells)” value in data set [3] (Test 1) is on record as 0.28. Further, in data set [1], the activation at 1 µM was not below 20%. Besides, in data set [2], the “Concentration in blood (mean ± SD) at brain Cmax” value was determined as 431 ± 46 nM, the “Concentration in brain (mean ± SD) at brain Cmax” value came out at 652 ± 85 pmol/g and the Kp was determined as 1.51.
The compound `C=C1[C@H](O)CC(=C/C=C2\CCC[C@]3(C)[C@@H]([C@H](C)CN4CC[C@@H](CCC(F)F)C4)CC[C@@H]23)C[C@H]1O` [Compound B062, (1R,3R)-5-(2-((1R,3aS,7aR,E)-1-((S)-1-((R)-3-(3,3-difluoropropyl)pyrrolidin-1-yl)propan-2-yl)-7a-methyloctahydro-4H-inden-4-ylidene)ethylidene)-2-methylenecyclohexane-1,3-diol] came in with a half-maximal effective concentration (EC50) on human VDR of 10 to 100 nM. In addition, the activation at 1 µM in data set [1] is not below 20%.
For `C=C1[C@H](O)CC(=C/C=C2\CCC[C@]3(C)[C@@H]([C@H](C)CN4CC(CC(F)F)C4)CC[C@@H]23)C[C@H]1O` [Compound A019, (1R,3R)-5-(2-((1R,3aS,7aR,E)-1-((S)-1-(3-(2,2-difluoroethyl)azetidin-1-yl)propan-2-yl)-7a-methyloctahydro-4H-inden-4-ylidene)ethylidene)-2-methylenecyclohexane-1,3-diol] the same measures were 10 to 100 nM and not below 20%.
Consider `C=C1C(O)CC(=C/C=C2\CCC[C@]3(C)[C@@H]([C@H](C)CN4CC[C@](C)(O)C4)CC[C@@H]23)C[C@H]1O` (stereo in doubt) [Compound B073, (1R,3S)-5-(2-((1R,3aS,7aR,E)-1-((S)-1-((S)-3-hydroxy-3-methylpyrrolidin-1-yl)propan-2-yl)-7a-methyloctahydro-4H-inden-4-ylidene)ethylidene)-2-methylenecyclohexane-1,3-diol], for which the EC50 at human VDR fell in the range of 1 to 10 nM. Moreover, in data set [1], the activation at 1 µM is not below 20%.
For `C=C1[C@H](O)CC(=C/C=C2\CCC[C@]3(C)[C@@H]([C@H](C)CN4CC[C@H](C)C4)CC[C@@H]23)C[C@H]1O` [Compound B002, (1R,3R)-5-(2-((1R,3aS,7aR,E)-7a-methyl-1-((S)-1-((S)-3-methylpyrrolidin-1-yl)propan-2-yl)octahydro-4H-inden-4-ylidene)ethylidene)-2-methylenecyclohexane-1,3-diol], in that order: 10 to 100 nM and not below 20%.
`C=C1[C@H](O)CC(=C/C=C2\CCC[C@]3(C)[C@@H]([C@H](C)CCN4CCOCC4)CC[C@@H]23)C[C@H]1O` [Compound D024, (1R,3R)-5-(2-((1R,3aS,7aR,E)-7a-methyl-1-((R)-4-morpholinobutan-2-yl)octahydro-4H-inden-4-ylidene)ethylidene)-2-methylenecyclohexane-1,3-diol]: the “Mean (number of MBP-positive cells/number of Hoechst33342-positive cells)” value in data set [3] (Test 2) was 0.39. Further, in data set [1], the activation at 1 µM is not below 20%. Moreover, in data set [2], the “Concentration in blood (mean ± SD) at brain Cmax” value is on record as 368 ± 26 nM, the “Concentration in brain (mean ± SD) at brain Cmax” value came to 726 ± 88 pmol/g and the Kp stood at 1.97.
With `COC1(C)CCCN(C[C@@H](C)[C@H]2CC[C@H]3/C(=C/C=C4C[C@@H](O)C[C@H](O)C4)CCC[C@]23C)C1` (single isomer, unassigned) [Compound C045a], the concentration for a half-maximal effect (EC50) on human VDR is 10 to 100 nM. Further, the activation at 1 µM in data set [1] is not below 20%.
For `C=C1[C@H](O)CC(=C/C=C2\CCC[C@]3(C)[C@@H]([C@H](C)CCN4CCOC[C@H]4C)CC[C@@H]23)C[C@H]1O` [Compound D031, (1R,3R)-5-(2-((1R,3aS,7aR,E)-7a-methyl-1-((R)-4-((R)-3-methylmorpholino)butan-2-yl)octahydro-4H-inden-4-ylidene)ethylidene)-2-methylenecyclohexane-1,3-diol], in that order: 1 to 10 nM and not below 20%.
Turning to `C[C@H](CN1CCCC(O)(C(F)F)C1)[C@H]1CC[C@H]2/C(=C/C=C3C[C@@H](O)C[C@H](O)C3)CCC[C@]12C` (single isomer, unassigned) [Compound C035a], the EC50 on human VDR was less than 1 nM. Further, the activation at 1 µM in data set [1] was not below 20%.

Values taken from patent publication US20230348376A1 (TEIJIN PHARMA LIMITED, priority 2020, published 2023).
